Ends that are not written are not given here.

Data set [1] has as its system tumors of both SCLC and NSCLC types of lung cancer cells. Details: species or system nude mice. As to conditions: mouse, in vivo.
The subject of data set [2] is lung cancer cells or plasma membranes derived therefrom. The data set is described as follows: direct binding of labeled thymosin to lung cancer cells or plasma membranes. As to conditions: 125I-Tyr labeled ligand. The source says: Direct, i.e., noncompetitive, binding of a labeled ligand to intact cells or plasma membranes may be determined. […] These and other experiments not detailed here indicate that the thymosins may not have specific receptors. Palaszynski, E., Biochemical Studies on Thymosin α1, Ph.D. Thesis, George Washington University, Washington, D.C., 1981. It is thus all the more suprising and unexpected that certain thymosins have such profound inhibitory effects on the binding of VIP to its specific receptors and on the growth promoting effects of VIP in lung cancer cells.

In data set [3] the test system is NCI-H720 (lung carcinoid cancer cells). The data set can be described thus: soft agar colonization, NCI-H720. It is filed as cell-based. To be noted: 1 μM; for NCI-H720 (carcinoid) colonies: colonies greater than 50 μm, mean ± S.E. of 3. Here is the method: (§1) The effects of THNα1 on the growth of lung cancer cell lines was studied. Single viable cells were plated in soft agar as previously described (Mahmoud, S., et al., Life Sci., 44:367 (1989)), and, after two weeks, the colonies were stained with 0.1% p-iodonitrotetrazolium violet.
(§2) The experimental conditions of Example 3 were repeated with NCI-H720 (lung carcinoid cancer cells) and NCI-N417 (SCLC lung cancer cells) cell lines. Colonies were counted as before.

The test system of data set [4] is NCI-N417 (SCLC lung cancer cells). The data set is described as follows: soft agar colonization, NCI-N417. It is filed as cell-based. As to conditions: 1 μM; for (SCLC) N417 colonies: colonies greater than 50 μm, mean ± S.E. of 3. The procedure:
as §1, §2

For the next data set, the system named is lung cancer cells. The data set is described as follows: in vitro colonization of lung cancer cells (general statement). It is filed as cell-based. Here is the method: Candidate anti-lung cancer peptides and antibodies may be screened in vitro in a soft agar colonization assay such as that described by Mahmoud, S., et al., Life Sci., 44:367 (1989) which is herein incorporated by reference. In general, single viable lung cancer cells are plated in soft agar. After an appropriate growth period, such as 14 days, cell colonies may be stained with an appropriate cytochemical stain, and the stained cells viewed microscopically. Cytochemical stains are well known to those skilled in the art of histology.

The subject of data set [5] is NCI-H510 lung cancer cells. The data set is described as follows: NCI-H510 growth in vivo. The arrangement: species or system nude mice. To be noted: 10 μg s.c. daily, week 4, mean of 3 tumors. The procedure:
In a procedure substantially as set forth in Moody et al. (1993) supra, NCI-H510 lung cancer cells were injected into nude mice, and tumors formed after one week. The compounds listed in Table V below (produced as described above) were injected (100 microliters) subcutaneously daily. Tumors were measured at week 4.

For data set [6], the system named is NCI-H1299 lung cancer cells. The data set is described as follows: 3H-arachidonic acid (AA) release. To be noted: 1 μM; 4 determinations. It is filed as cell-based. The procedure: In a procedure substantially as set forth in Moody et al. (1993) supra, NCI-H1299 lung cancer cells were loaded with ^3 H-AA overnight, and after removal of free ^3 H-AA cells, were treated with increasing concentrations of THNα1(1-16)amide (Δ), THNα1 (.largecircle.) and THNα1amide (.box-solid.) (produced as described above). The mean value ± S.E. of 4 determinations is indicated; *,p<0.05; ** p<0.01.

“Ac-SDAAVDTSSEITTKDLKEKKEVVEEAEN [THNα1, thymosin α1]”: in data set [1], the toxic side effects result was “No toxic side effects were observed”.
With “(^125 I-Tyr)-labeled THNα1: 125I-Tyr labeled THNα1 used for direct binding analyses (SDAAVDTSSEITTKDLKEKKEVVEEAEN; ends and bridges not checked; also: 125I-Tyr label, place not given here; UniProt P06454 2-29, looked up)”, the “direct (noncompetitive) binding affinity” value in data set [2] is “bind with poor affinity”.
Regarding “thymosin β4 (SDKPDMAEIEKFDKSKLKKTETQEKNPLPSKETIEQEKQAGES; Thymosin beta-4; UniProt P62328 2-44, looked up) [THN β4, a 43-amino acid peptide, MW 4982]”, the “N/No, NCI-H720” value in data set [3] is on record as 0.93. Besides, the figures for the “NCI-H720 (carcinoid) colonies” value in data set [3] and in data set [3] (listed as THNβ4) were 68 ± 20 and “did not influence colony number significantly”, respectively. For the same substance, in data set [4], the “N/No, N417” value amounted to 1.20. Also, the “(SCLC) N417 colonies” value in data set [4] was 240 ± 68; in data set [4] (listed as THNβ4), “did not influence colony number significantly”. Besides, in the data set on lung cancer cells, the “colony formation of lung cancer cells in vitro” value was “little effect”.
On to “Ac-SDAAVDTSSEITTKDL-NH2 [THNα1-N16 (1-16) amide, Ac-Ser-Asp-Ala-Ala-Val-Asp-Thr-Ser-Ser-Glu-Ile-Thr-Thr-Lys-Asp- Leu-NH2]”, for which the Tumor volume was 410 mm^3 in data set [5] and “strongly inhibit” in data set [5] (listed as THNα1-N16 (1-16)amide). Moreover, the 3H-AA release result in data set [6] is on record as “significantly stimulate”.

These data come from patent US5721211A, “Compositions and methods for treating small cell and nonsmall cell lung cancers” (The George Washington University, priority 1993, dated 1998).
